# Square brackets hold non-standard residues; d marks the D form. Peptide text beside a SMILES is read from it. * marks the point of attachment. dAad = N[C@H](CCCC(=O)O)C(=O)O; pNA = O=[N+]([O-])c1ccc(N*)cc1; Cbz = O=C(OCc1ccccc1)*
# Columns and labels:
# bovine factor Xa = molecular target: T1, bovine factor Xa (Bos taurus, UniProt P00743); assay: Activity of bovine factor Xa solution on chromogenic/fluorogenic substrate (split product H-R5 released); format: biochemical; conditions: substrate concentration 2 × 10^-4; TRIS-imidazole buffer pH 8.4, ionic strength 0.3, 37° C.; factor Xa preparation "Diagen"; value calculated for 1 ml of factor Xa solution
# T1 construct: purchased Diagnostic Reagents Ltd., Thame, Great Britain factor Xa preparation "Diagen"
# T1 sequence (P00743 234-492 limits assumed): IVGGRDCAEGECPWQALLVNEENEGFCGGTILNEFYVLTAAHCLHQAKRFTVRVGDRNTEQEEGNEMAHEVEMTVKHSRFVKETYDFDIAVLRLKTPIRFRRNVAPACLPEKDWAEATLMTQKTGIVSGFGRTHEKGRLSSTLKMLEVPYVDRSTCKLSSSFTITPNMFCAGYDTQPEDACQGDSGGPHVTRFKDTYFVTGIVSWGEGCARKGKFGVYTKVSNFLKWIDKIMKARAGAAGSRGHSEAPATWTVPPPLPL
# T1 sequence (P00743 41-180 partner limits assumed): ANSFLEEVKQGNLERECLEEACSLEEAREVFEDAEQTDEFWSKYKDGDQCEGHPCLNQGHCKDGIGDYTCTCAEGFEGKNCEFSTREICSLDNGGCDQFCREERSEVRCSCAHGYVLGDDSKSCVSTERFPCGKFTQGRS
# Method: (§1) The values of the factor Xa activity given in Table 4 were determined experimentally in the manner described hereinafter:
# For determining the activity of bovine factor Xa 1.8 ml of TRIS-imidazole buffer having a pH of 8.4 and an ionic strength of 0.3 was well mixed at 37° C. with 0.025 ml of an aqueous solution of factor Xa preparation "Diagen" (furnisher: Diagnostic Reagents Ltd., Thame, Great Britain) obtained by dissolving the contents of one vial in 0.5 ml of water. To the mixture there was added 0.2 ml of a 2×10^-3 M aqueous solution of a substrate of the invention. Thereafter, the quantity of split product H--R^5 in nanomoles released per minute was determined, and the corresponding value of 1 ml of factor Xa solution was calculated.
# human factor Xa = molecular target: T2, human factor Xa (Homo sapiens, UniProt P00742); assay: Activity of factor Xa obtained by RVV activation of factor X in normal human blood plasma on substrate (split product H-R5 released); format: biochemical; conditions: substrate concentration 2 × 10^-4; TRIS-imidazole buffer pH 8.4, ionic strength 0.3, 37° C.; citrated plasma activated with Russel viper venom 75 seconds; value calculated for 1 ml of citrated plasma
# T2 construct: from tissue
# T2 sequence (P00742 235-488 limits assumed): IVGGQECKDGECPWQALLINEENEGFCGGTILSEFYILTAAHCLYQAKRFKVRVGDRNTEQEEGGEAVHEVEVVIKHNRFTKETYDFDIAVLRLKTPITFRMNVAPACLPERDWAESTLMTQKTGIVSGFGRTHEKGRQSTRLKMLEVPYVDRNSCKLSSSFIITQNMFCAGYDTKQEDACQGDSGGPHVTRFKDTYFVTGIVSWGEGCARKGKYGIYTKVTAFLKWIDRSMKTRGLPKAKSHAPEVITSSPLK
# T2 sequence (P00742 41-179 partner limits assumed): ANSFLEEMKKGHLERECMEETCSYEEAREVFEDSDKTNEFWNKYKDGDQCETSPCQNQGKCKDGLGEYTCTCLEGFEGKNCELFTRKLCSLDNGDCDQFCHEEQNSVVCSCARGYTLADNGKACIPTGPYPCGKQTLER
# Method: as §1
# For determining the activity of human factor Xa 0.01 ml of normal citrated plasma was mixed with 0.20 ml of a solution of Russel viper venom in TRIS-imidazole buffer having a pH of 8.4 and an ionic strength of 0.3 and containing 15 mmoles of CaCl2 […]. The mixture was incubated for 75 seconds at 37° C. in order to activate factor X present in the plasma and convert it completely into factor Xa. To the incubate there was added first 1.40 ml of TRIS-imidazole buffer (pH 8.4, ionic strength 0.3) heated to 37° C. and then 0.40 ml of a 2×10^-3 M aqueous solution of a substrate of the invention. Thereafter, the quantity of split produce H--R^5 in nanomoles released per minute was determined, and the corresponding value for 1 ml of citrated plasma was calculated.
Molecule,"Activity of 1 ml of aqueous solution of bovine factor Xa, expressed in nanomoles of split product H--R^5 released per minute (bovine factor Xa)","Activity of factor Xa as obtained by activation of factor X in 1 ml of normal human blood plasma by means of RVV, expressed in nanomoles of split product H--R^5 released per minute (human factor Xa)"
2-(4-Cbo-- amino)-phenylacetyl-D-Nval--Gly--Arg--pNA.HBr [Example 53],680 nanomoles of split product H--,510 nanomoles of split product H--
4-Aminomethyl-cyclohexyl-carbonyl-bonyl-D-Leu--Sar--Arg--pNA.2HBr [Example 43],60 nanomoles of split product H--,30 nanomoles of split product H--
"N=C(N)NCCC[C@H](NC(=O)CNC(=O)[C@@H](CCC(=O)O)NC(=O)OCc1ccccc1)C(=O)Nc1ccc([N+](=O)[O-])cc1 [Example 96, Cbo--D-Glu--Gly--Arg--pNA] (Cbz-[dE]-Gly-Arg-pNA)",830 nanomoles of split product H--,505 nanomoles of split product H--
"N=C(N)NCCC[C@H](NC(=O)CNC(=O)[C@@H](CCCC(=O)O)NC(=O)OCc1ccccc1)C(=O)Nc1ccc([N+](=O)[O-])cc1 [Example 102, Cbo--D-Aadi--Gly--Arg--pNA] (Cbz-[dAad]-Gly-Arg-pNA)",1030 nanomoles of split product H--,905 nanomoles of split product H--
BOC--D-(α)-AOA--Gly--Arg--pNA.AcOH [Example 84],2210 nanomoles of split product H--,1690 nanomoles of split product H--
Cbo--4-aminomethyl-cyclohexyl-carbonyl-D-Leu--176 Sar--Arg--pNA.HBr [Example 42],30 nanomoles of split product H--,20 nanomoles of split product H--

# From US4480030A, “Tripeptide derivatives and their application in assaying enzymes” (Pentapharm A.G., priority 1980, dated 1984)
